Assays:
Assay in all cases: relative viability (nuclei count vs DMSO), 5 days (fraction); higher = more cells survive
MLN4924 + Trametinib = compound: NS(=O)(=O)OC[C@@H]1C[C@@H](n2ccc3c(N[C@H]4CCc5ccccc54)ncnc32)C[C@@H]1O [MLN4924] + CC(=O)Nc1cccc(-n2c(=O)n(C3CC3)c(=O)c3c(Nc4ccc(I)cc4F)n(C)c(=O)c(C)c32)c1 [Trametinib] (partner 0.02 µM)
How it was run: (§1)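 Relative viability equals treated-well nuclei counts divided by vehicle-well nuclei counts. Counts came from 4× images of lung cancer cell lines grown in 1536-well plates for 5 days after pin-tool dosing on the day after seeding. Dosing used one drug alone or a fixed anchor-drug dose plus five library-drug doses (not always all listed) in √10 steps, and values are medians of duplicate plates.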

Carboplatin + Pemetrexed = compound: C1CC(C1)(C(=O)O)C(=O)O.[NH2-].[NH2-].[Pt+2] [Carboplatin] + Nc1nc2[nH]cc(CCc3ccc(C(=O)N[C@@H](CCC(=O)O)C(=O)O)cc3)c2c(=O)[nH]1 [Pemetrexed] (partner 0.2 µM)
How it was run: as §1

Carboplatin + AZD7762 = compound: C1CC(C1)(C(=O)O)C(=O)O.[NH2-].[NH2-].[Pt+2] [Carboplatin] + NC(=O)Nc1cc(-c2cccc(F)c2)sc1C(=O)N[C@H]1CCCNC1 [AZD7762] (partner 0.2 µM)
How it was run: as §1

Carboplatin + Decitabine = compound: C1CC(C1)(C(=O)O)C(=O)O.[NH2-].[NH2-].[Pt+2] [Carboplatin] + Nc1ncn([C@H]2C[C@H](O)[C@@H](CO)O2)c(=O)n1 [Decitabine] (partner 2 µM)
How it was run: as §1

Cell Line | relative viability (MLN4924 + Trametinib; first compound 0.04 µM) | relative viability (MLN4924 + Trametinib; first compound 0.1265 µM) | relative viability (MLN4924 + Trametinib; first compound 0.4 µM) | relative viability (MLN4924 + Trametinib; first compound 1.265 µM) | relative viability (MLN4924 + Trametinib; first compound 4 µM) | relative viability (Carboplatin + Pemetrexed; first compound 0.08 µM) | relative viability (Carboplatin + Pemetrexed; first compound 0.253 µM) | relative viability (Carboplatin + Pemetrexed; first compound 0.8 µM) | relative viability (Carboplatin + Pemetrexed; first compound 2.53 µM) | relative viability (Carboplatin + Pemetrexed; first compound 8 µM) | relative viability (Carboplatin + AZD7762; first compound 0.08 µM) | relative viability (Carboplatin + AZD7762; first compound 0.253 µM) | relative viability (Carboplatin + AZD7762; first compound 0.8 µM) | relative viability (Carboplatin + AZD7762; first compound 2.53 µM) | relative viability (Carboplatin + AZD7762; first compound 8 µM) | relative viability (Carboplatin + Decitabine; first compound 0.08 µM) | relative viability (Carboplatin + Decitabine; first compound 0.253 µM) | relative viability (Carboplatin + Decitabine; first compound 0.8 µM) | relative viability (Carboplatin + Decitabine; first compound 2.53 µM) | relative viability (Carboplatin + Decitabine; first compound 8 µM)
NCI-H1648 | 0.481 | 0.353 | 0.332 | 0.314 | 0.306 | 0.747 | 0.737 | 0.733 | 0.587 | 0.65 | 0.662 | 0.62 | 0.538 | 0.696 | 0.539 | 0.542 | 0.475 | 0.542 | 0.435 | 0.46
NCI-H1651 | 0.799 | 0.853 | 0.81 | 0.512 | 0.185 | 0.702 | 0.61 | 0.552 | 0.534 | 0.56 | 0.539 | 0.537 | 0.447 | 0.456 | 0.436 | 0.773 | 0.633 | 0.589 | 0.574 | 0.509
NCI-H1666 | 0.762 | 0.601 | 0.615 | 0.429 | 0.51 | 0.876 | 0.857 | 0.845 | 0.846 | 0.819 | 0.973 | 0.916 | 0.811 | 0.779 | 0.831 | 0.715 | 0.824 | 0.774 | 0.752 | 0.653
NCI-H1734 | 0.705 | 0.715 | 0.181 | 0.123 | 0.126 | 0.423 | 0.422 | 0.495 | 0.408 | 0.419 | 0.575 | 0.558 | 0.558 | 0.46 | 0.419 | 0.485 | 0.46 | 0.483 | 0.465 | 0.438
NCI-H1755 | 0.813 | 0.749 | 0.801 | 0.348 | 0.215 | 0.436 | 0.371 | 0.437 | 0.443 | 0.386 | 0.445 | 0.477 | 0.491 | 0.465 | 0.419 | 0.702 | 0.674 | 0.737 | 0.668 | 0.607
NCI-H1792 | 0.376 | 0.441 | 0.566 | 0.433 | 0.238 | 1.21 | 0.75 | 0.755 | 0.811 | 0.608 | 0.924 | 0.669 | 0.606 | 0.457 | 0.352 | 0.475 | 0.562 | 0.497 | 0.372 | 0.291
NCI-H1793 | 0.417 | 0.426 | 0.508 | 0.376 | 0.294 | 1.1 | 0.908 | 0.918 | 0.866 | 0.93 | 0.667 | 0.457 | 0.393 | 0.334 | 0.58 | 0.464 | 0.538 | 0.503 | 0.452 | 0.357
NCI-H1915 | 0.346 | 0.39 | 0.403 | 0.261 | 0.167 | 0.487 | 0.531 | 0.505 | 0.47 | 0.416 | 0.64 | 0.706 | 0.679 | 0.647 | 0.39 | 0.264 | 0.258 | 0.249 | 0.23 | 0.258
NCI-H1944 | 0.388 | 0.353 | 0.329 | 0.193 | 0.186 | 0.644 | 0.557 | 0.643 | 0.526 | 0.485 | 0.616 | 0.5 | 0.584 | 0.559 | 0.354 | 0.456 | 0.456 | 0.437 | 0.417 | 0.363
NCI-H1975 | 0.344 | 0.544 | 0.44 | 0.38 | 0.312 | 0.297 | 0.266 | 0.277 | 0.298 | 0.268 | 0.868 | 0.746 | 0.679 | 0.742 | 0.691 | 0.416 | 0.399 | 0.402 | 0.43 | 0.367
NCI-H1993 | 0.63 | 0.425 | 0.388 | 0.415 | 0.356 | 0.684 | 0.568 | 0.513 | 0.67 | 0.608 | 0.973 | 0.899 | 0.864 | 0.871 | 0.695 | 0.64 | 0.661 | 0.559 | 0.559 | 0.473

From the supplement of paper PMC10307832
